Results: PMC7570871, “Evaluation of a New ^177Lu-Labeled Somatostatin Analog for the Treatment of Tumors Expressing Somatostatin Receptor Subtypes 2 and 5” (Molecules, 2020)
Read-outs that look alike come from different tables or passages of the source.

Experiments:
human SST2 [1] = molecular target: T1, human SST2 (Homo sapiens, UniProt P30874); set-up: method as in PMID 32757150; settings: HEK-SST2 membranes, 125I-SS-14 radioligand; cited from earlier work
T1 construct: expressed in transfected cells; host or cells: HEK cells (HEK-SST2), stably transfected

human SST2 [2] = molecular target: T1, human SST2; assay: Competition binding assay with 125I-SS-14 on membranes of HEK-SST2 cells; settings: 125I-SS-14 radioligand
Experimental: (§1) Human Embryonic Kidney (HEK) cells were stably transfected with plasmids encoding the human SST2 and SST5 (HEK-SST2 and HEK-SST5) and cultivated as previously described. […] Nontransfected HEK cells were used as negative control.
(§2) Binding assays were performed as described previously.

human SST5 = molecular target: T2, human SST5 (Homo sapiens, UniProt P35346); assay: Competition binding assay with 125I-SS-14 on membranes of HEK-SST5 cells; settings: 125I-SS-14 radioligand
T2 construct: expressed in transfected cells; host or cells: HEK cells (HEK-SST5), stably transfected
Experimental: as §1, §2

T1 sequence (P30874 whole entry): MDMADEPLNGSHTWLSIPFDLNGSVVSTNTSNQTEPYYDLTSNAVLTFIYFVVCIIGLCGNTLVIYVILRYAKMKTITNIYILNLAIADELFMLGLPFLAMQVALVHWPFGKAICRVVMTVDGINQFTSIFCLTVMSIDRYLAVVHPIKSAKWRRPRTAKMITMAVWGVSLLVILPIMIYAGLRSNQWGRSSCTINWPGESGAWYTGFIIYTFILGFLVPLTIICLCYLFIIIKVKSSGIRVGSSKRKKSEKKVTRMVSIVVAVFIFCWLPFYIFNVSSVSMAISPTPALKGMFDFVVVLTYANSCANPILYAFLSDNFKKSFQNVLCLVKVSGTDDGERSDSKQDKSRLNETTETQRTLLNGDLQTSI
T2 sequence (P35346 whole entry): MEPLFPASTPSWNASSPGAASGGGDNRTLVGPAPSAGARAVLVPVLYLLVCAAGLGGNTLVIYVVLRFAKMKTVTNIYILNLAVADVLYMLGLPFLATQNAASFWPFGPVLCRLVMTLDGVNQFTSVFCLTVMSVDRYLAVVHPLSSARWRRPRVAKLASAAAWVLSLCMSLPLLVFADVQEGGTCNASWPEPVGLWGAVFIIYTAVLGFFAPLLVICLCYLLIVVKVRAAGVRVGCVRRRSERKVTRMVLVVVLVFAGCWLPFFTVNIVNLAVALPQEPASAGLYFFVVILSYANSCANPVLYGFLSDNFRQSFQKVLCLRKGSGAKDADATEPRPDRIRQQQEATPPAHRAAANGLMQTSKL

IC50 (human SST2 [2]) | IC50 (human SST5) | Compound | IC50 (human SST2 [1])
– | – | (4-amino-3-iodo)-D-Phe-c[Cys-(3-iodo)-Tyr-D-Trp-Lys-Val-Cys]-Thr-NH2 [ST8950] | 280 pM
510 pM | 4800 pM | C[C@@H](O)[C@@H]1NC(=O)[C@H](CCCCN)NC(=O)[C@@H](Cc2c[nH]c3ccccc23)NC(=O)[C@H](Cc2cccc3ccccc23)NC(=O)[C@@H](NC(=O)[C@@H](Cc2ccccc2)NC(=O)CN2CCN(CC(=O)O)CCN(CC(=O)O)CCN(CC(=O)O)CC2)CSSC[C@@H](C(=O)N[C@H](CO)[C@@H](C)O)NC1=O [^natLu-DOTA-NOC, metal not drawn, reference compound] | –
